Where two headings read alike, the source gives them in different places. *1 amine or outer side, *2 acyl side, *3 side chain or, on linkers, in order; H or OH if unused. Where a SMILES comes first, the peptide text is derived from it. Bridges are numbered along the chain shown (N, C = ends). [ ]: non-standard residue; d: D form. The star is where a group is joined. X145 = CN1CCN(c2ccc(-c3ccc(F)cc3C[C@@H](C(=O)[*:2])N(C)[*:1])cc2F)CC1; X137 = CN([C@@H](Cc1cc(F)ccc1-c1cnn(S(C)(=O)=O)c1)C(=O)[*:2])[*:1]; X158 = CCOc1ccc(-c2ccc(Cl)cc2C[C@@H](C(=O)[*:2])N(C)[*:1])cn1; X189 = CN([C@@H](Cc1cc(Cl)ccc1-c1ccc2scnc2c1)C(=O)[*:2])[*:1]; X26 = CN([C@@H](Cc1cc(F)ccc1-c1cnn(C2CC2)c1)C(=O)[*:2])[*:1]; NMehhhLys(Me) = CN([C@@H](CCCCCCCN(C)[*:3])C(=O)[*:2])[*:1]; X125 = CN([C@@H](Cc1cc(Cl)ccc1-c1cncc(F)c1)C(=O)[*:2])[*:1]; X174 = CN([C@@H](Cc1cc(Cl)cnc1-c1cnn(C)c1)C(=O)[*:2])[*:1]; X206 = CN([C@@H](Cc1cc(Cl)cnc1Cc1cnn(C)c1)C(=O)[*:2])[*:1]; X112 = CN([C@@H](Cc1cc(F)ccc1-c1cnn(C)c1)C(=O)[*:2])[*:1]; X22 = CN([C@@H](Cc1cc(Cl)ccc1-c1cnn(C)c1)C(=O)[*:2])[*:1]; X44 = Cc1nnc(-c2ccc(Cl)cc2C[C@@H](C(=O)[*:2])N(C)[*:1])o1; NMe(hhhLys) = CN([C@@H](CCCCCCCN[*:3])C(=O)[*:2])[*:1]; Oxane2carbonyl(2R-CF3) = O=C([C@@]1(C(F)(F)F)CCCCO1)*; Cyclobutanecarbonyl(1-CF3) = O=C(C1(C(F)(F)F)CCC1)*; cBuCO(3,3-F2-1-CF3) = O=C(C1(C(F)(F)F)CC(F)(F)C1)*; Pro(trans-4-F) = O=C(O)[C@@H]1C[C@@H](F)CN1; Pivaloyl(3,3,3-F3) = CC(C)(C(=O)*)C(F)(F)F; X27 = O=C([C@]1(C(F)(F)F)CCCCO1)*; Gly(cPr) = N[C@H](C(=O)O)C1CC1
Experiments:
[1] = molecular target: T1, CyclinE1/CDK2 (Homo sapiens, UniProt P24864); assay: Fluorescence Polarization (FP) competitive binding assay, Cyclin E1/Cdk2;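 also: readings taken after two-hour equilibration at room temperature in HEPES buffer with NaCl, DTT, NP-40 and BSA, IC50 fitted from eight-concentration serial dilution series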
T1 construct: purchased Eurofins, discovery 14-475

[2] = molecular target: T2, CyclinB1/CDK1 (Homo sapiens, UniProt P14635); assay: Fluorescence Polarization (FP) competitive binding assay, Cyclin B1/Cdk1;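 also: fluorescence polarization read after equilibration at room temperature, with IC50 taken from serially diluted dose-response curves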
T2 construct: purchased Eurofins, discovery 14-450

[3] = test system: OVCAR3 cells; assay: MTT proliferation assay, OVCAR3; type: cell-based; conditions: 5 days compound exposure, 1:3 serial dilution starting at 10 μM;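 also: compound given as an 8- or 10-point series, one day after plating, with exposure covering roughly 3-4 cell doublings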
[4] = test system: NCI-H1048 cells; assay: MTT proliferation assay, NCI-H1048; type: cell-based; conditions: 5 days compound exposure, 1:3 serial dilution starting at 10 μM;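 also: Dose-response in 96-well plates over 8 or 10 concentration points, with exposure spanning 3-4 cell doublings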
[5] = molecular target: T3, CyclinA2/CDK2 (Homo sapiens, UniProt P20248); assay: Fluorescence Polarization (FP) competitive binding assay, Cyclin A2/Cdk2;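 also: plates equilibrated two hours at room temperature before polarization reading, IC50 fitted from eight-concentration compound titration curves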
T3 construct: purchased CRELUX Protein Services

[6] = 10 nM Cyclin E1/Cdk2, 2 nM FAM probe, average of 2-3 independent experiments, read-out: Cyclin E FP IC50
[7] = 10 nM Cyclin B1/Cdk1, 2 nM FAM probe; average of 2-3 independent experiments; read-out: Cyclin B FP IC50
[8] = 8 nM Cyclin A2/Cdk2, 2 nM FAM probe; average of 2-3 independent experiments; read-out: Cyclin A FP IC50

SMILES	IC50 [1, 6]	IC50 [2, 7]	GI50 [3]	GI50 [4]	IC50 [5, 8]	IC50 [1]	IC50 ([2]; read-out: Cyclin B FP IC50; 10 nM Cyclin B1/Cdk1, 2 nM FAM probe; average of 2-3 independent experiments)	IC50 ([5]; read-out: Cyclin A FP IC50; 8 nM Cyclin A2/Cdk2, 2 nM FAM probe; average of 2-3 independent experiments)
Cc1nnc(-c2ccc(Cl)cc2C[C@H]2C(=O)NCCCCCCC[C@H](N(C)C(=O)[C@@H](NC(=O)[C@@H]3C[C@@H](F)CN3C(=O)C3(C(F)(F)F)CCC3)C3CC3)C(=O)N[C@@H](CC(C)C)C(=O)N2C)o1 [Example 161] ({Cyclobutanecarbonyl(1-CF3)}-[Pro(trans-4-F)][Gly(cPr)][NMe(hhhLys)]L[X44]; lactam 3-C)	120 nM	20 nM	20 nM	20 nM	20 nM			
CC(C)C[C@@H]1NC(=O)[C@@H](N(C)C(=O)[C@@H](NC(=O)[C@@H]2C[C@@H](F)CN2C(=O)C2(C(F)(F)F)CCC2)C2CC2)CC=CCCCCNC(=O)[C@H](Cc2cc(Cl)ccc2Oc2ncccn2)N(C)C1=O (single isomer, unassigned) [Example 156-P1]	830 nM	20 nM	530 nM	480 nM	890 nM			
CCOc1ccc(-c2ccc(Cl)cc2C[C@H]2C(=O)N(C)CCCCCCC[C@H](N(C)C(=O)[C@@H](NC(=O)[C@@H]3C[C@@H](F)CN3C(=O)C3(C(F)(F)F)CC(F)(F)C3)C3CC3)C(=O)N[C@@H](CC(C)C)C(=O)N2C)cn1 [Example 182] ({cBuCO(3,3-F2-1-CF3)}-[Pro(trans-4-F)][Gly(cPr)][NMehhhLys(Me)]L[X158]; lactam 3-C)	1170 nM	20 nM	130 nM	60 nM	20 nM			
CC(C)C[C@@H]1NC(=O)[C@@H](N(C)C(=O)[C@@H](NC(=O)[C@@H]2C[C@@H](F)CN2C(=O)C2(C(F)(F)F)CC(F)(F)C2)C2CC2)CCCCCCCN(C)C(=O)[C@H](Cc2cc(Cl)ccc2-c2ccc3scnc3c2)N(C)C1=O [Example 169] ({cBuCO(3,3-F2-1-CF3)}-[Pro(trans-4-F)][Gly(cPr)][NMehhhLys(Me)]L[X189]; lactam 3-C)	1090 nM	20 nM	30 nM	20 nM	30 nM			
CC(C)C[C@@H]1NC(=O)[C@@H](N(C)C(=O)[C@@H](NC(=O)[C@@H]2C[C@@H](F)CN2C(=O)C2(C(F)(F)F)CC(F)(F)C2)C2CC2)CCCCCCCNC(=O)[C@H](Cc2cc(F)ccc2-c2cnn(C3CC3)c2)N(C)C1=O [Example 213] ({cBuCO(3,3-F2-1-CF3)}-[Pro(trans-4-F)][Gly(cPr)][NMe(hhhLys)]L[X26]; lactam 3-C)	190 nM	20 nM	10 nM	10 nM	30 nM			
CC(C)C[C@@H]1NC(=O)[C@@H](N(C)C(=O)[C@@H](NC(=O)[C@@H]2C[C@@H](F)CN2C(=O)C2(C(F)(F)F)CC(F)(F)C2)C2CC2)CC=CCCCCN(C)C(=O)[C@H](Cc2cc(F)ccc2C2=CCCC2)N(C)C1=O [Example 46]	350 nM	20 nM	790 nM	720 nM	20 nM			
CC(C)C[C@@H]1NC(=O)[C@@H](N(C)C(=O)[C@@H](NC(=O)[C@@H]2CCCN2C(=O)C2(C(F)(F)F)CCC2)C2CC2)CCCCCCCN(C)C(=O)[C@H](Cc2cc(Cl)ccc2-c2cnn(C)c2)N(C)C1=O [Example 76] ({Cyclobutanecarbonyl(1-CF3)}-P[Gly(cPr)][NMehhhLys(Me)]L[X22]; lactam 3-C)	880 nM	20 nM	120 nM	80 nM	20 nM			
CC(C)C[C@@H]1NC(=O)[C@@H](N(C)C(=O)[C@@H](NC(=O)[C@@H]2C[C@@H](F)CN2C(=O)C2(C(F)(F)F)CC(F)(F)C2)C2CC2)CC=CCCCCNC(=O)[C@H](Cc2cc(Cl)ccc2Oc2ncccn2)N(C)C1=O [Example 152]	1900 nM	20 nM	450 nM	500 nM	1020 nM			
CC(C)C[C@@H]1NC(=O)[C@@H](N(C)C(=O)[C@@H](NC(=O)[C@@H]2C[C@@H](F)CN2C(=O)C2(C(F)(F)F)CC(F)(F)C2)C2CC2)CCCCCCCN(C)C(=O)[C@H](Cc2cc(Cl)ccc2-c2cncc(F)c2)N(C)C1=O [Example 198] ({cBuCO(3,3-F2-1-CF3)}-[Pro(trans-4-F)][Gly(cPr)][NMehhhLys(Me)]L[X125]; lactam 3-C)	1450 nM	20 nM	50 nM	50 nM	50 nM			
CC(C)C[C@@H]1NC(=O)[C@@H](N(C)C(=O)[C@@H](NC(=O)[C@@H]2C[C@@H](F)CN2C(=O)C(C)(C)C(F)(F)F)C2CC2)CCCCCCCN(C)C(=O)[C@H](Cc2cc(Cl)ccc2-c2cnn(C)c2)N(C)C1=O [Example 204] ({Pivaloyl(3,3,3-F3)}-[Pro(trans-4-F)][Gly(cPr)][NMehhhLys(Me)]L[X22]; lactam 3-C)			10 nM	10 nM		160 nM	20 nM	20 nM
CC(C)C[C@@H]1NC(=O)[C@@H](N(C)C(=O)[C@@H](NC(=O)[C@@H]2C[C@@H](F)CN2C(=O)C2(C(F)(F)F)CC(F)(F)C2)C2CC2)CCCCCCCN(C)C(=O)[C@H](Cc2cc(F)ccc2-c2ccc(N3CCN(C)CC3)c(F)c2)N(C)C1=O [Example 401] ({cBuCO(3,3-F2-1-CF3)}-[Pro(trans-4-F)][Gly(cPr)][NMehhhLys(Me)]L[X145]; lactam 3-C)	380 nM	20 nM	10 nM	10 nM	20 nM			
CC(C)C[C@@H]1NC(=O)[C@@H](N(C)C(=O)[C@@H](NC(=O)[C@@H]2C[C@@H](F)CN2C(=O)[C@]2(C(F)(F)F)CCCCO2)C2CC2)CCCCCCCN(C)C(=O)[C@H](Cc2cc(F)ccc2-c2cnn(C3CC3)c2)N(C)C1=O [Example 146] (X27-[Pro(trans-4-F)][Gly(cPr)][NMehhhLys(Me)]L[X26]; lactam 3-C)	100 nM	20 nM	20 nM	20 nM	30 nM			
CC(C)C[C@@H]1NC(=O)[C@@H](N(C)C(=O)[C@@H](NC(=O)[C@@H]2C[C@@H](F)CN2C(=O)C2(C(F)(F)F)CCC2)C2CC2)CCCCCCCN(C)C(=O)[C@H](Cc2cc(Cl)cnc2-c2cnn(C)c2)N(C)C1=O [Example 247] ({Cyclobutanecarbonyl(1-CF3)}-[Pro(trans-4-F)][Gly(cPr)][NMehhhLys(Me)]L[X174]; lactam 3-C)	310 nM	20 nM	40 nM	50 nM	20 nM			
Cc1nnc(-c2ccc(Cl)cc2C[C@H]2C(=O)NCCCCC=CC[C@H](N(C)C(=O)[C@@H](NC(=O)[C@@H]3C[C@@H](F)CN3C(=O)C3(C(F)(F)F)CCC3)C3CC3)C(=O)N[C@@H](CC(C)C)C(=O)N2C)o1 (single isomer, unassigned) [Example 117-P2]	160 nM	20 nM	60 nM	90 nM	60 nM			
CC(C)C[C@@H]1NC(=O)[C@@H](N(C)C(=O)[C@@H](NC(=O)[C@@H]2C[C@@H](F)CN2C(=O)[C@@]2(C(F)(F)F)CCCCO2)C2CC2)CCCCCCCN(C)C(=O)[C@H](Cc2cc(Cl)cnc2Cc2cnn(C)c2)N(C)C1=O [Example 332] ({Oxane2carbonyl(2R-CF3)}-[Pro(trans-4-F)][Gly(cPr)][NMehhhLys(Me)]L[X206]; lactam 3-C)	100 nM	20 nM	10 nM	10 nM	20 nM			
CC(=O)N1CC=C(c2ccc(F)cc2C[C@H]2C(=O)N(C)CCCCC=CC[C@H](N(C)C(=O)[C@@H](NC(=O)[C@@H]3C[C@@H](F)CN3C(=O)C3(C(F)(F)F)CC(F)(F)C3)C3CC3)C(=O)N[C@@H](CC(C)C)C(=O)N2C)CC1 [Example 39]	940 nM	20 nM	210 nM	90 nM	60 nM			
CC(C)C[C@@H]1NC(=O)[C@@H](N(C)C(=O)[C@@H](NC(=O)[C@@H]2C[C@@H](F)CN2C(=O)C2(C(F)(F)F)CC(F)(F)C2)C2CC2)CC=CCCCCN(C)C(=O)[C@H](Cc2cc(Cl)ccc2-c2cncnc2)N(C)C1=O [Example 30]	5050 nM	20 nM	140 nM	130 nM	240 nM			
CC(C)C[C@@H]1NC(=O)[C@@H](N(C)C(=O)[C@@H](NC(=O)[C@@H]2C[C@@H](F)CN2C(=O)[C@@]2(C(F)(F)F)CCCCO2)C2CC2)CCCCCCCN(C)C(=O)[C@H](Cc2cc(F)ccc2-c2cnn(S(C)(=O)=O)c2)N(C)C1=O [Example 303] ({Oxane2carbonyl(2R-CF3)}-[Pro(trans-4-F)][Gly(cPr)][NMehhhLys(Me)]L[X137]; lactam 3-C)	100 nM	20 nM	10 nM	10 nM	30 nM			
CC(C)C[C@@H]1NC(=O)[C@@H](N(C)C(=O)[C@@H](NC(=O)[C@@H]2C[C@@H](F)CN2C(=O)C2(C(F)(F)F)CC(F)(F)C2)C2CC2)CCCCCCCN(C)C(=O)[C@H](Cc2cc(F)ccc2-c2cnn(C)c2)N(C)C1=O [Example 65] ({cBuCO(3,3-F2-1-CF3)}-[Pro(trans-4-F)][Gly(cPr)][NMehhhLys(Me)]L[X112]; lactam 3-C)	270 nM	20 nM	10 nM	10 nM	20 nM			
